Assay results from article PMC3429506, “Screening for Novel LRRK2 Inhibitors Using a High-Throughput TR-FRET Cellular Assay for LRRK2 Ser935 Phosphorylation” (PLoS ONE, 2012).
Read-outs that look alike come from different tables or passages of the source.

Columns and labels:
LRRK2 wild-type = LRRK2 wild-type (Homo sapiens, UniProt Q5S007); assay: TR-FRET cellular assay for LRRK2 Ser935 phosphorylation, SH-SY5Y cells, BacMam LRRK2-GFP wild-type; format: cell-based; design: This high-throughput assay utilizes cells expressing full-length human LRRK2 with a C-terminal GFP tag (LRRK2-GFP); host or cells: SH-SY5Y cells transduced with BacMam
Method: (§1) U-2 OS cells are maintained in growth medium (McCoy’s 5A supplemented with 10% dialyzed FBS (dFBS), 10 mM HEPES, 0.1 mM NEAA, 1 mM Sodium Pyruvate, and 100 U/mL Penicillin/100 µg/mL Streptomycin). HEK293T cells are maintained in DMEM with 10% dFBS, 10 mM HEPES, 0.1 mM NEAA and 100 U/mL Penicillin/100 µg/mL Streptomycin. SH-SY5Y cells are maintained in DMEM/F-12 medium supplemented with 10% dFBS and 100 U/mL Penicillin/100 µg/mL Streptomycin. […] GIBCO® human neural stem cells (hNSCs) were propagated as an adherent culture in StemPro® NSC SFM according to the manufacturer’s recommended protocol (Life Technologies). For BacMam transduction of U-2 OS and HEK293T, cells were harvested, mixed with various amounts of BacMam LRRK2-GFP reagent (v/v) and plated onto 6-well plates. […] Cells were assayed in 384-well format (∼20,000 cells/well) 48 hours post-transduction as above.
(§2) Transduced cells in the 384-well assay plate were incubated with indicated inhibitors (5X, 5 µL/well) for 60 to 90 minutes. During this time, 6 X lysis buffer (Life Technologies) was supplemented with 30 nM Tb-labeled anti-LRRK2 pSer935 antibody and both protease and phosphatase inhibitor cocktails (Sigma). The complete 6 X lysis buffer was added to each well (5 µL/well) and the plates were incubated at room temperature in the dark for 2 hours. […] A sigmoidal dose-response equation with varying slope was used to fit the data and generate IC50 values. Z′-factor values were calculated as: Z′-factor = 1 - [(3 × stdevno virus +3 × stdevmaxvirus)/(avgmaxvirus – avgno-virus)]. The IC50 values reported in Table 1 are the averaged numbers from three independent experiments.

LRRK2 G2019S [1] = biological target: T1, LRRK2 G2019S (Homo sapiens, UniProt Q5S007, G2019S); assay: TR-FRET cellular assay for LRRK2 Ser935 phosphorylation, SH-SY5Y cells, BacMam LRRK2-GFP G2019S (incl. Tocriscreen Mini library screen and follow-up); format: cell-based; design: This high-throughput assay utilizes cells expressing full-length human LRRK2 with a C-terminal GFP tag (LRRK2-GFP); host or cells: SH-SY5Y cells transduced with BacMam
LRRK2 G2019S [2] = biological target: T1, LRRK2 G2019S; assay: TR-FRET cellular assay for LRRK2 Ser935 phosphorylation, HEK293T cells, BacMam LRRK2-GFP G2019S; design: This high-throughput assay utilizes cells expressing full-length human LRRK2 with a C-terminal GFP tag (LRRK2-GFP); host or cells: HEK293T cells transduced with BacMam; settings: +/- SD, three independent experiments, * = partial inhibition, read-out: IC50, TR-FRET cell-based assay for Ser935 phosphorylation of LRRK2
Method: as §1, §2

[3] = Cytotoxicity assay (resazurin-based cell viability); settings: human
LRRK2-GFP = assay: Fluorescence microscopy of LRRK2-GFP localization in U-2 OS cells; format: cell-based, human; settings: 3 µM 90 min, Figure 1A
Method: U-2 OS cells were transduced with BacMam LRRK2-GFP as described above. The cells were then plated on chambered coverslips (LabTek II/Nunc, Rochester, NY) at 50% confluency and incubated for 48 hours. The growth medium was replaced with phenol-red free DMEM® (Life Technologies, Carlsbad, CA) before live imaging. Cells were imaged under the same conditions for each mutant using an inverted microscope (Nikon Eclipse TE2000-S) equipped with a PlanApo 60X objective and a charge-coupled device camera (Diagnostic Instruments SPOT RT 2.3.0) using SPOT Advanced software.

LRRK2 G2019S [4] = biological target: T1, LRRK2 G2019S; assay: TR-FRET cellular assay for LRRK2 Ser935 phosphorylation, U-2 OS cells, BacMam LRRK2-GFP G2019S; format: cell-based; design: This high-throughput assay utilizes cells expressing full-length human LRRK2 with a C-terminal GFP tag (LRRK2-GFP); host or cells: U-2 OS, SH-SY5Y, HEK293T cells or human neural stem cells transduced with BacMam
Method: as §1, §2

T1 sequence (Q5S007 whole entry G2019S): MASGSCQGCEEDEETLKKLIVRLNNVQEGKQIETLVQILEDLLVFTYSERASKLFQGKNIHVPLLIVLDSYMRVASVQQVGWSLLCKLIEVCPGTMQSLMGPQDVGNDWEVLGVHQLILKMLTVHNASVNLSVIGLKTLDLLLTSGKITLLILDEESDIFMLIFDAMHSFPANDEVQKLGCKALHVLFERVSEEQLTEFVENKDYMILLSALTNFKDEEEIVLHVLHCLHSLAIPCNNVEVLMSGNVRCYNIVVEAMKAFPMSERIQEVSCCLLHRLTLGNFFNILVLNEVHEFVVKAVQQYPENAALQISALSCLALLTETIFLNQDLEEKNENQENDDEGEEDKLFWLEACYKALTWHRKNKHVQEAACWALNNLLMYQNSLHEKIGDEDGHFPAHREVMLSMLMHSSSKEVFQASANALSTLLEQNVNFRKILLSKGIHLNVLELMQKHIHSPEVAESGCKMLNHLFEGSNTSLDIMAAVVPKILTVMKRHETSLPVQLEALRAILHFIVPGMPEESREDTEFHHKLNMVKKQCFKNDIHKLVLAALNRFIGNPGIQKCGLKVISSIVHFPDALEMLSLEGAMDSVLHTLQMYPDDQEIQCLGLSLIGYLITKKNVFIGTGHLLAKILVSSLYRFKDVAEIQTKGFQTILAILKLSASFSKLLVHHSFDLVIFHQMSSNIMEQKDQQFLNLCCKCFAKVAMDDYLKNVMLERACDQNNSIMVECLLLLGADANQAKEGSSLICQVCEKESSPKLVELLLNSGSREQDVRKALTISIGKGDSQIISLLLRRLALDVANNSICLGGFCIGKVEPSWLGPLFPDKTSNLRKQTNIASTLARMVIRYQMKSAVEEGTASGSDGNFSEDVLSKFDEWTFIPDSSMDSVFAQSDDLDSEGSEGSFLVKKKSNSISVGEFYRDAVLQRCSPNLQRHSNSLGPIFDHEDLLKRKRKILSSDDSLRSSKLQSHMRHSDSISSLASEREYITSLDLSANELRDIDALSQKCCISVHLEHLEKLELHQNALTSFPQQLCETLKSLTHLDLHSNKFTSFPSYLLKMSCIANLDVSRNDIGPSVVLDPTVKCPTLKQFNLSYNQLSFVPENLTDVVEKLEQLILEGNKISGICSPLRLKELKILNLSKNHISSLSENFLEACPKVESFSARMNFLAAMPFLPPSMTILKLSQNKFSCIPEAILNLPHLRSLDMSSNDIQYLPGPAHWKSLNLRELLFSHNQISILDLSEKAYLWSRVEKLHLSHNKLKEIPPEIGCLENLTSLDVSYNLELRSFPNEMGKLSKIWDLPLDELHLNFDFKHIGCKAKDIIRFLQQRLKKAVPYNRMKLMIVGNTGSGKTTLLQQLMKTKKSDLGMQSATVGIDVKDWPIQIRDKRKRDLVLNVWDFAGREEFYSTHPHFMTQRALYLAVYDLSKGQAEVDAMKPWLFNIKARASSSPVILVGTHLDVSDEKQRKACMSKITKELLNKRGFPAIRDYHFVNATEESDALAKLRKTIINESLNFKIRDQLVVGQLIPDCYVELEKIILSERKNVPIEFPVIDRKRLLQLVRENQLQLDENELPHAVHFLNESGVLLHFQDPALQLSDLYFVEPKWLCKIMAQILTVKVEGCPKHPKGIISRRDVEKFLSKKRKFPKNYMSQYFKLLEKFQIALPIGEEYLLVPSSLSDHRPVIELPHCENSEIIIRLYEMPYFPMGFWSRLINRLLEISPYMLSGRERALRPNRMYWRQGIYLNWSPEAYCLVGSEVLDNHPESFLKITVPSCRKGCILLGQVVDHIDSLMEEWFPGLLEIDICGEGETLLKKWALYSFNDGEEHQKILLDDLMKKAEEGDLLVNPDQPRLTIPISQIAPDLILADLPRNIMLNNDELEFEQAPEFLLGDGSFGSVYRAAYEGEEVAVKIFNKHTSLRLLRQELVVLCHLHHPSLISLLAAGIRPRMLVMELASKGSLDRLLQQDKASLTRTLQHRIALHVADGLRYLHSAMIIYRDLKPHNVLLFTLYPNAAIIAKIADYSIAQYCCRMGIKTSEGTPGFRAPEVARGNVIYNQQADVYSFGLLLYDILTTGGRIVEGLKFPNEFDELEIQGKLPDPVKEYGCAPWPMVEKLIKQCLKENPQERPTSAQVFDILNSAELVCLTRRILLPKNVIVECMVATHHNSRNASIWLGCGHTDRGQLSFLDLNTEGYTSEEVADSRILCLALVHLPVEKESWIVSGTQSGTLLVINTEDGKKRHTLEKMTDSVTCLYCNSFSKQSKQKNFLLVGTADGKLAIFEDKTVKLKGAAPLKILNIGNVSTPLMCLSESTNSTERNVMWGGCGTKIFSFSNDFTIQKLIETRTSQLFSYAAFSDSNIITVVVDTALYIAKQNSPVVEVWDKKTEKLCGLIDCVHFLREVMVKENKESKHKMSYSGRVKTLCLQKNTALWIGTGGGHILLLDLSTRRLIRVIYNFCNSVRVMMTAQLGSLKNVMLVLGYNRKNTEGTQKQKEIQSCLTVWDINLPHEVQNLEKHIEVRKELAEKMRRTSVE
Chain of LRRK2 wild-type (Q5S007 whole entry): as the sequence (Q5S007 whole entry G2019S) above, with S2019G counted along it

Work on `COc1cc(C(=O)N2CCC(N3CCN(C)CC3)CC2)ccc1Nc1ncc2c(n1)N(C)c1ccccc1C(=O)N2C` [LRRK2-IN-1] yielded an IC50 (LRRK2 wild-type; 25% BacMam wild-type, 90 min, Figure 3C, read-out: IC50, inhibition of TR-FRET signal (Ser935 phosphorylation)) of 170 nM, an IC50 (LRRK2 wild-type; WT, +/- SD, three independent experiments, * = partial inhibition, read-out: IC50, TR-FRET cell-based assay for Ser935 phosphorylation of LRRK2) of 200 nM and an IC50 (LRRK2 G2019S [1]; SH-SY5Y, 25% BacMam G2019S, 90 min, Figure 3C, read-out: IC50, inhibition of TR-FRET signal (Ser935 phosphorylation)) of 40 nM. The IC50 (LRRK2 G2019S [1]; SH-SY5Y, G2019S, +/- SD, three independent experiments, * = partial inhibition, read-out: IC50, TR-FRET cell-based assay for Ser935 phosphorylation of LRRK2) was 60 nM, the inhibition at 10 µM (LRRK2 G2019S [1]; SH-SY5Y, LRRK2-IN-1 positive control used at 10 µM, SH-SY5Y G2019S, read-out: %Inhibition Initial screen (positive control)) was 100% and the IC50 (LRRK2 G2019S [1]; cryopreserved pretransduced SH-SY5Y cells, 25% BacMam G2019S, 90 min, Figure S3, read-out: IC50 using cryopreserved cells) was about 40 nM. It also gave an IC50 (LRRK2 G2019S [1]; dose-response follow-up, SH-SY5Y G2019S, three independent experiments, read-out: Cellular TR-FRET Assay IC50 +/-SD) of 70 nM, an IC50 (LRRK2 G2019S [2]) of 60 nM and an IC50 [3] of over 20000 nM. For the same compound, the LRRK2-GFP cellular localization (LRRK2-GFP) was “relocalization of the wild-type, G2019S and R1441C to more fibrillar-like structures”, the IC50 (LRRK2 G2019S [4]; 20% BacMam G2019S, 90 min, Figure 2B, read-out: IC50, inhibition of TR-FRET signal (Ser935 phosphorylation)) was 30 nM and the IC50 (LRRK2 G2019S [4]; G2019S, +/- SD, three independent experiments, * = partial inhibition, read-out: IC50, TR-FRET cell-based assay for Ser935 phosphorylation of LRRK2) was 50 nM.
